Values quoted from earlier work in patent publication US20050238693A1, “Process for the preparation and activation of susbstances and a means of producing same” (priority 2002, published 2005).

Tested on: bone loss
Details: 400 mg dose twice a day; women relatively soon after menopause

[Ca] [Calcium]
bone loss and bone density in spine, femoral neck and radial shaft: avert bone loss and stabilized bone density
